Laboratory results: US12195482B1 (Arcus Biosciences, Inc., priority 2022, dated 2025)

Tests used:
recombinant human MER = target: T1, recombinant human MER (Homo sapiens, UniProt Q12866); experiment: Biochemical potency, HTRF KinEASE-TK kinase assay; conditions: 1 nM MER, 700 μM ATP
T1 construct: purchased Invitrogen
T1 sequence (Q12866 21-999): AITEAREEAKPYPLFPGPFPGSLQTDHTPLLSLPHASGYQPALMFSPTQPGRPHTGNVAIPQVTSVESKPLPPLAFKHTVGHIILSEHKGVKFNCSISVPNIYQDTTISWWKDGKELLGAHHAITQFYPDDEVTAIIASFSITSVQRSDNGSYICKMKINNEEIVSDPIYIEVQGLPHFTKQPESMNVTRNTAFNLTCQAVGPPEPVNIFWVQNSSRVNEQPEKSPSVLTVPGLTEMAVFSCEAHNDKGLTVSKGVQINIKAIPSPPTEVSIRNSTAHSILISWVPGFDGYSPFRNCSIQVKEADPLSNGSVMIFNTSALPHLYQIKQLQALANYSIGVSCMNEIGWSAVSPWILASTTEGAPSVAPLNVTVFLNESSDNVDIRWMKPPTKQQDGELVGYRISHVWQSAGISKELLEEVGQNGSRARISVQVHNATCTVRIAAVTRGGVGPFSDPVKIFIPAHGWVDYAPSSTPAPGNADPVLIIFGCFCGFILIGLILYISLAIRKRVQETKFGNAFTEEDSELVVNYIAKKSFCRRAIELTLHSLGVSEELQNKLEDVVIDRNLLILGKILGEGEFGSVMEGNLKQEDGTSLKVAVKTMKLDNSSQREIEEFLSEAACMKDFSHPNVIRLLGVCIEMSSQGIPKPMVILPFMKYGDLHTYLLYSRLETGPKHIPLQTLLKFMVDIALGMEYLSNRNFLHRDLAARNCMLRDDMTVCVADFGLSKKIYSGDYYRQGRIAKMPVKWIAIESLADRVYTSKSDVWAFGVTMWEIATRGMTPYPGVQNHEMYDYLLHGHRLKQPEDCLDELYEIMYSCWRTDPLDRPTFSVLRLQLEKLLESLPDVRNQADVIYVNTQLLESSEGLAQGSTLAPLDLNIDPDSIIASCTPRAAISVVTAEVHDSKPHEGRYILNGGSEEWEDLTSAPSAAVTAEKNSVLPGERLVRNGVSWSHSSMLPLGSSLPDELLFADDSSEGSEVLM
Protocol: (§1) Measurement of Biochemical Compound Potency of Axl Inhibitors
(§2) Purified recombinant human AXL, TYRO3 and MER proteins were purchased from Invitrogen™. 10 nM AXL, 2 nM TYRO3 or MER were incubated with varying concentrations of compounds in 50 mM HEPES, pH 7.4, 10 mM MgCl2, 0.01% BSA, 1 mM DTT and 2% DMSO in a total volume of 20 μl in a 384-well microplate (Corning™ #3640) at RT for 1 h. The AXL, TYRO3 and MER enzymatic reaction was initiated by transferring 10 μl of enzyme and compound mixture into 10 μl of 1.6 μM TK Substrate-biotin (HTRF® KinEASE-TK kit, Cisbio) and 1400 μM ATP pre-incubated in 50 mM HEPES, pH 7.4, 10 mM MgCl2, 0.01% BSA, 1 mM DTT in a 384-well microplate (Corning™ #3640) at RT, giving the final reaction conditions: 5 nM AXL, 1 nM TYRO3 or MER, 800 nM TK Substrate-biotin and 700 μM ATP in 50 mM HEPES, pH 7.4, 10 mM MgCl2, 0.01% BSA, 1 mM DTT and 1% DMSO with varying concentrations of compounds. Following 2 h incubation at RT, the AXL, TYRO3 and MER enzymatic reaction was stopped by transfer of 10 μl of reaction into 10 μl of detection mix (400 nM Streptavidin-XL665, 200-fold dilution TK Antibody-Cryptate and detection buffer, HTRF® KinEASE-TK kit, Cisbio) in a white 384-well microplate (Perkin Elmer, OptiPlate 384). After 1 h incubation at RT, the plate was put into a plate reader (Evision) to read at 665/620 nm (acceptor/donor) for HTRF. The value of the DMSO blank (MIN inhibition=100% activity) was used as a negative control. The positive control was established by adding 5 μl of enzyme and DMSO mixture into 10 μl of detection mix followed by addition of 5 μl of TK Substrate-biotin and ATP mixture (MAX inhibition=0% activity). To calculate the percent activity, Equation 1 was used. Ratio665/620 is the value at a given compound concentration: […]

recombinant human TYRO3 = target: T2, recombinant human TYRO3 (Homo sapiens, UniProt Q06418); experiment: Biochemical potency, HTRF KinEASE-TK kinase assay; conditions: 1 nM TYRO3, 700 μM ATP
T2 construct: purchased Invitrogen
T2 sequence (Q06418 41-890): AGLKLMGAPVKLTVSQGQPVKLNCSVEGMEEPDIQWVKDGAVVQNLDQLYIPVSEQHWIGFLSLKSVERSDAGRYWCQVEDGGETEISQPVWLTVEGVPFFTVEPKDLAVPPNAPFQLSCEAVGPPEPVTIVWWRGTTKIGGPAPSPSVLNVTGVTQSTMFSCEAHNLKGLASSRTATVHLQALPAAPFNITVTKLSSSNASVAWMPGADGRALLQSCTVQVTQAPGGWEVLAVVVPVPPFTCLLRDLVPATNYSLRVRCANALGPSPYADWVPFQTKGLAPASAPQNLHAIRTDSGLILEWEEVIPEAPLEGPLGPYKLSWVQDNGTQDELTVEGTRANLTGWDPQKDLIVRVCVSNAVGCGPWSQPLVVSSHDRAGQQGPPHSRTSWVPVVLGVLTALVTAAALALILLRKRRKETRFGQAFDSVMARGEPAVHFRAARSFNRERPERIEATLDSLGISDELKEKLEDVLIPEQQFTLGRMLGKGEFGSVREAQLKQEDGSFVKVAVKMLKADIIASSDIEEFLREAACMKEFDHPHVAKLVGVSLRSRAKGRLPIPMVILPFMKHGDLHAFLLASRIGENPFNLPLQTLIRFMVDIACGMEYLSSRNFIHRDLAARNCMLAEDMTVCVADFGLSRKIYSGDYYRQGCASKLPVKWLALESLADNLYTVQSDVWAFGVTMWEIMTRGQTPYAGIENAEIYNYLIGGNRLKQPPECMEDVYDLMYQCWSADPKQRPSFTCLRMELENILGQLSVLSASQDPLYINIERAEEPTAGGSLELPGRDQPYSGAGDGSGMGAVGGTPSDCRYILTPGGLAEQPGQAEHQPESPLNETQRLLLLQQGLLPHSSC
Protocol: as §1, §2

Compound	IC50 (recombinant human MER)	IC50 (recombinant human TYRO3)
Cc1cccnc1-c1ccc(-c2n[nH]c3ncc(-c4ccc5c(c4)CC[C@@H](N4C6COCC4C6)CC5)cc23)nc1 [Example 26, 3-Methyl-6′-{5-[(7S)-7-{3-oxa-6-azabicyclo[3.1.1]heptan-6-yl}-6,7,8,9-tetrahydro-5H-benzo[7]annulen-2-yl]-1H-pyrazolo[3,4-b]pyridin-3-yl}-2,3′-bipyridine]	100 to 1000 nM	100 to 1000 nM
Cc1ccccc1-c1ccc(-c2c[nH]c3ncc(-c4ccc5c(c4)CC[C@@H](N4C6COCC4C6)CC5)cc23)nc1 [Example 97, 6-[(7S)-2-{3-[5-(2-Methylphenyl)pyridin-2-yl]-1H-pyrrolo[2,3-b]pyridin-5-yl}-6,7,8,9-tetrahydro-5H-benzo[7]annulen-7-yl]-3-oxa-6-azabicyclo[3.1.1]heptane]	> 1000 nM	> 1000 nM
CC(C)(O)c1cccnc1-c1ccc(-c2n[nH]c3ncc(-c4ccc5c(c4)CC[C@@H](N4C6COCC4C6)CC5)cc23)nc1 [Example 100, 2-(6′-{5-[(7S)-7-{3-Oxa-6-azabicyclo[3.1.1]heptan-6-yl}-6,7,8,9-tetrahydro-5H-benzo[7]annulen-2-yl]-1H-pyrazolo[3,4-b]pyridin-3-yl}-[2,3′-bipyridin]-3-yl)propan-2-ol]	> 1000 nM	100 to 1000 nM
Cc1ccnc(-c2ccc(-c3n[nH]c4ncc(-c5ccc6c(c5)CC[C@@H](N5C7COCC5C7)CC6)cc34)cc2)c1C [Example 118, 6-[(7S)-2-{3-[4-(3,4-Dimethylpyridin-2-yl)phenyl]-1H-pyrazolo[3,4-b]pyridin-5-yl}-6,7,8,9-tetrahydro-5H-benzo[7]annulen-7-yl]-3-oxa-6-azabicyclo[3.1.1]heptane]	100 to 1000 nM	< 100 nM
C[C@@H]1CCCN1[C@@]1(C)CCc2ccc(-c3cnc4[nH]cc(-c5ccc(-c6ccccn6)cc5)c4c3)cc2CC1 [Example 156, 2-(4-{5-[(7S)-7-Methyl-7-[(2R)-2-methylpyrrolidin-1-yl]-6,7,8,9-tetrahydro-5H-benzo[7]annulen-2-yl]-1H-pyrrolo[2,3-b]pyridin-3-yl}phenyl)pyridine]	100 to 1000 nM	100 to 1000 nM
Cc1ncc(C)c(-c2ccc(-c3n[nH]c4ncc(-c5ccc6c(c5)CC[C@@H](N5C7COCC5C7)CC6)cc34)cc2)n1 [Example 122, 6-[(7S)-2-{3-[4-(2,5-Dimethylpyrimidin-4-yl)phenyl]-1H-pyrazolo[3,4-b]pyridin-5-yl}-6,7,8,9-tetrahydro-5H-benzo[7]annulen-7-yl]-3-oxa-6-azabicyclo[3.1.1]heptane]	100 to 1000 nM	< 100 nM
CC(C)(O)c1ccccc1-c1ccc(-c2n[nH]c3ncc(-c4ccc5c(c4)CC[C@@H](N4C6COCC4C6)CC5)cc23)cn1 [Example 113, 2-[2-(5-{5-[(7S)-7-{3-Oxa-6-azabicyclo[3.1.1]heptan-6-yl}-6,7,8,9-tetrahydro-5H-benzo[7]annulen-2-yl]-1H-pyrazolo[3,4-b]pyridin-3-yl}pyridin-2-yl)phenyl]propan-2-ol]	100 to 1000 nM	100 to 1000 nM
CCOc1cccnc1-c1ccc(-c2n[nH]c3ncc(-c4ccc5c(c4)CC[C@@H](N4C6COCC4C6)CC5)cc23)cc1 [Example 181, 6-[(7S)-2-{3-[4-(3-Ethoxypyridin-2-yl)phenyl]-1H-pyrazolo[3,4-b]pyridin-5-yl}-6,7,8,9-tetrahydro-5H-benzo[7]annulen-7-yl]-3-oxa-6-azabicyclo[3.1.1]heptane]	100 to 1000 nM	100 to 1000 nM

Next, values leading:

IC50 (recombinant human MER)	IC50 (recombinant human TYRO3)	Compound
< 100 nM	< 100 nM	Cc1cccnc1-c1ccc(-c2c[nH]c3ncc(-c4ccc5c(c4)CC[C@@H](N4CCCC4)CC5)cc23)cc1 [Example 173, 3-Methyl-2-(4-{5-[(7S)-7-(pyrrolidin-1-yl)-6,7,8,9-tetrahydro-5H-benzo[7]annulen-2-yl]-1H-pyrrolo[2,3-b]pyridin-3-yl}phenyl)pyridine]
100 to 1000 nM	< 100 nM	O=C1CCCCN1c1cccnc1-c1ccc(-c2n[nH]c3ncc(-c4ccc5c(c4)CC[C@@H](N4C6COCC4C6)CC5)cc23)cc1 [Example 127, 1-[2-(4-{5-[(7S)-7-{3-Oxa-6-azabicyclo[3.1.1]heptan-6-yl}-6,7,8,9-tetrahydro-5H-benzo[7]annulen-2-yl]-1H-pyrazolo[3,4-b]pyridin-3-yl}phenyl)pyridin-3-yl]piperidin-2-one]
< 100 nM	< 100 nM	O=C1OCCN1c1cccnc1-c1ccc(-c2n[nH]c3ncc(-c4ccc5c(c4)CC[C@@H](N4C6COCC4C6)CC5)cc23)cc1 [Example 121, 3-[2-(4-{5-[(7S)-7-{3-Oxa-6-azabicyclo[3.1.1]heptan-6-yl}-6,7,8,9-tetrahydro-5H-benzo[7]annulen-2-yl]-1H-pyrazolo[3,4-b]pyridin-3-yl}phenyl)pyridin-3-yl]-1,3-oxazolidin-2-one]
< 100 nM	< 100 nM	CO[C@H]1C[C@@H](N[C@H]2CCc3ccc(-c4cnc5[nH]nc(-c6ccc(-c7ncccc7C)cc6)c5c4)cc3CC2)C1 [Example 131, (7S)-2-{3-[4-(3-Methylpyridin-2-yl)phenyl]-1H-pyrazolo[3,4-b]pyridin-5-yl}-N-[cis-3-methoxycyclobutyl]-6,7,8,9-tetrahydro-5H-benzo[7]annulen-7-amine]
< 100 nM	< 100 nM	Cc1cccnc1-c1ccc(-c2c[nH]c3ncc(-c4ccc5c(c4)CC[C@@](C)(N4CCC[C@H]4C)CC5)cc23)cc1 [Example 172, 3-Methyl-2-(4-{5-[(7S)-7-methyl-7-[(2R)-2-methylpyrrolidin-1-yl]-6,7,8,9-tetrahydro-5H-benzo[7]annulen-2-yl]-1H-pyrrolo[2,3-b]pyridin-3-yl}phenyl)pyridine]
